Common to all, as to type: cell-based, human
Assay [1] deals with PCNA isoform in MCF7 cells (p53 wild-type). Description: 2D-PAGE anti-PCNA immunoblot after DOX exposure, MCF7. Conditions: high-dose (5 μM) DOX. How it is done: (§1) FIG. 7A is a Western blot analysis of p53 wild-type (MCF7) and p53-mutant (MDA-MB-468) breast carcinoma cell lines exposed to 5 μM DOX for the indicated times. Cell extracts (200 μg) were resolved by 2D-PAGE and immunoblotted with anti-PCNA antibodies. In FIG. 7B extracts from MCF7 cells (50 μg) treated with 5 μM DOX were separated by 12% SDS-PAGE and immunoblotted with anti-p21WAF1 antibodies. FIG. 7C is a Western blot analysis of glutathione-immobilized GST-p21 and GST-PIP (a.a. 139-160) fusion proteins incubated with untreated MCF7 cell extracts for 2 h at 4° C. and the pull-down fractions were resolved by 2D-PAGE and Western blotted for PCNA. PCNA isoforms were isolated from MCF7 extracts by incubation with PIP-affinity beads for ˜2 h and analyzed by 2D-PAGE using pH 4-7 IPG strips. Colloidal Coomassie stained spots (See FIG. 7D) were excised from the gel, trypsin digested, and sequenced by LC-MS/MS.
(§2) 2D-PAGE and mass spectrometry. Isoelectric focusing was performed using IPG strips and an IEF cell (BioRad) as previously described (Hoelz, D. J. et al. Proteomics 6, 4808-4816, 2006). […] Anti-PCNA (PC10) antibodies were obtained from Santa Cruz Biotech and anti-WAF1 (DF10) were from EMD Biosciences.
(§3) Although the description of Arm1 identifies a novel posttranslational mechanism in eukaryotic cells, its biological significance was still unclear. […]
(In general: In western blotting, separated proteins are transferred to a membrane and probed.)

Assay [2] deals with PCNA isoform in MDA MB468 cells (p53-mutant). In words: 2D-PAGE anti-PCNA immunoblot after DOX exposure, MDA MB468. The note with it: 5 μM DOX. The method, then: as §1, §2, §3
The test system of assay [3] is p21WAF1/CIP1 in MCF7 cells. In words: Immunoblot with anti-p21WAF1 antibodies after DOX treatment. The note with it: 5 μM DOX, 4 h after treatment.

As for `COc1cccc2c1C(=O)c1c(O)c3c(c(O)c1C2=O)C[C@@](O)(C(=O)CO)C[C@@H]3O[C@H]1C[C@H](N)[C@H](O)[C@H](C)O1` [DOX, doxorubicin], the “basic-shifted (methyl esterified) PCNA isoform, pI ~5.6” value in assay [1] is recorded as “induced”. The “basic-shifted (methyl esterified) PCNA isoform” value in assay [2] is reported as “unable to identify the isoform”. The “induction of p21 expression” value in assay [3] is “over 27 fold”.

The values are drawn from patent publication US20120258482A1, “PCNA […]” (INDIANA UNIVERSITY RESEARCH AND TECHNOLOGY CORPORATION, priority 2009, published 2012).
